The values that follow are results of earlier work, collected in US7438896B2, “Method of skin care using lipoic and ascorbic acids” (N.V. Perricone LLC, priority 1995, dated 2008).

One series concerns rat edema. The conditions noted are these: compared with lipoic alone or vitamin E alone.
Another series concerns porcine skin. Particulars: compositions without serine.
The subject of series [1] is cultured human keratinocytes. The conditions noted are these: compositions without serine.

`O=C(O)CCCC[C@@H]1CCSS1` (single isomer, unassigned) [R-enantiomer of lipoic acid]: in the series with rat edema, the “anti-inflammatory effect in rat edema model” value was “superior to lipoic alone or to vitamin E alone”.

Consider `O=C(O)CCCC[C@H]1CCSS1` (single isomer, unassigned) [S-enantiomer], for which the “effect on the action of insulin” value with insulin was “decreased the effect of insulin”.

For `O=C(O)CCCCC1CCSS1` (stereo not shown) [lipoic acid, 1,2-dithiolane-3-pentanoic acid], the “effect on ceramide production” value (in the series on porcine skin; in series [1]) was “had no effect” in each case.
